Test results: patent publication US6573293B2, “Pyrrole substituted 2-indolinone protein kinase inhibitors” (Sugen, Inc., priority 2000, dated 2003)

Tests used:
[1] = target: T1, GST-Flk1 (Mus musculus, UniProt P35918); test: GST-FLK-1 bioassay (bio flkGST); type: biochemical
T1 construct: GST-Flk1cd purified from sf9 recombinant baculovirus transformation; host or cells: Sf9 (baculovirus)

[2] = target: T2, PDGFR-β (Homo sapiens, UniProt P09619); test: PDGFR bioassay (bio PDGF); type: biochemical
T2 construct: host or cells: NIH 3T3

[3] = target: T3, EGFR (Homo sapiens, UniProt P00533); test: EGFR bioassay (bio EGF); type: biochemical
T3 construct: A431 cell lysate (SUGEN, Inc.); host or cells: A431

[4] = target: T3, EGFR; test: cell EGF assay; type: cell-based
Procedure: Several of the assays described herein are performed in an ELISA (Enzyme-Linked Immunosorbent Sandwich Assay) format (Voller, et al., 1980, “Enzyme-Linked Immunosorbent Assay,” Manual of Clinical Immunology, 2d ed., Rose and Friedman, Am. Soc. Of Microbiology, Washington, D.C., pp. 359-371). The general procedure is as follows: a compound is introduced to cells expressing the test kinase, either naturally or recombinantly, for a selected period of time after which, if the test kinase is a receptor, a ligand known to activate the receptor is added. The cells are lysed and the lysate is transferred to the wells of an ELISA plate previously coated with a specific antibody recognizing the substrate of the enzymatic phosphorylation reaction. Non-substrate components of the cell lysate are washed away and the amount of phosphorylation on the substrate is detected with an antibody specifically recognizing phosphotyrosine compared with control cells that were not contacted with a test compound.

[5] = target: T4, HER-2 kinase (Homo sapiens, UniProt P04626); test: Cellular HER-2 kinase assay; type: cell-based; conditions: read-out: Her2 Kinase IC50
T4 construct: Use EGFr/HER-2 chimera/3T3-C7 cell line for this assay; It is expressed in mouse NIH 3T3 clone C7 cells; P00533 (Epidermal growth factor receptor)
T4 sequence (P04626 720-987 limits assumed): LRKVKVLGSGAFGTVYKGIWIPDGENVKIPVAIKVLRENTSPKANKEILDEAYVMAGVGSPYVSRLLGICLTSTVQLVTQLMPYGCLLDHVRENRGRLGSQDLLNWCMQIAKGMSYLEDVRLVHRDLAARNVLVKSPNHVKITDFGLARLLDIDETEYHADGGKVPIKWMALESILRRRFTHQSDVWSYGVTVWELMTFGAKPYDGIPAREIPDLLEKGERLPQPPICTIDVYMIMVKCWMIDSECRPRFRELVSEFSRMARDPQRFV

T2 sequence (P09619 33-1106): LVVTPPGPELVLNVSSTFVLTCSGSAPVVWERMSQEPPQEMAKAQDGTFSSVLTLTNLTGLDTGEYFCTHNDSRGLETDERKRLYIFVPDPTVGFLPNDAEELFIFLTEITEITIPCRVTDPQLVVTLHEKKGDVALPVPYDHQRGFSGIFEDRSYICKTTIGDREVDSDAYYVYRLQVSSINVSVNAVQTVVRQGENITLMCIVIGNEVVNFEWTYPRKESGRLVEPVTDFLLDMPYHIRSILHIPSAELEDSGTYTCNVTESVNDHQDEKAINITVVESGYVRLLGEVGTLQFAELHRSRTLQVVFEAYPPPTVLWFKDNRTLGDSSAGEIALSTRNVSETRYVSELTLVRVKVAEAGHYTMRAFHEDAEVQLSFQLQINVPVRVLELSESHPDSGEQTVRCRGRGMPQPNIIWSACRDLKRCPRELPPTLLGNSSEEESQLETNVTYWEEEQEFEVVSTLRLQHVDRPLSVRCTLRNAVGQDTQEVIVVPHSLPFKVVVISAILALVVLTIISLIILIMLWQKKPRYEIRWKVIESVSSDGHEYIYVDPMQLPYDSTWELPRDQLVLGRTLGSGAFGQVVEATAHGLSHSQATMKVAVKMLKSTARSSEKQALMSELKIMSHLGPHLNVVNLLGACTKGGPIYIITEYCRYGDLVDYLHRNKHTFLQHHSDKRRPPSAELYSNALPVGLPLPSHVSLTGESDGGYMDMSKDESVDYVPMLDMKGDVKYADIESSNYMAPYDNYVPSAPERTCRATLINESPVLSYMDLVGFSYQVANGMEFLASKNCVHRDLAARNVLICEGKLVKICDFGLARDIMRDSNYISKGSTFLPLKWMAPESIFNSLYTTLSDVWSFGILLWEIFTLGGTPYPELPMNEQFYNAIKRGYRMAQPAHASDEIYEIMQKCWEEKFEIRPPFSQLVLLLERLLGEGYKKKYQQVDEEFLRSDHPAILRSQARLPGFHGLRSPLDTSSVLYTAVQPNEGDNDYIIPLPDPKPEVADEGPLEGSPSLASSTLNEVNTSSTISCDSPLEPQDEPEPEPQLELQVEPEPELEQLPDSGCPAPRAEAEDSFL
T3 sequence (P00533 25-1210): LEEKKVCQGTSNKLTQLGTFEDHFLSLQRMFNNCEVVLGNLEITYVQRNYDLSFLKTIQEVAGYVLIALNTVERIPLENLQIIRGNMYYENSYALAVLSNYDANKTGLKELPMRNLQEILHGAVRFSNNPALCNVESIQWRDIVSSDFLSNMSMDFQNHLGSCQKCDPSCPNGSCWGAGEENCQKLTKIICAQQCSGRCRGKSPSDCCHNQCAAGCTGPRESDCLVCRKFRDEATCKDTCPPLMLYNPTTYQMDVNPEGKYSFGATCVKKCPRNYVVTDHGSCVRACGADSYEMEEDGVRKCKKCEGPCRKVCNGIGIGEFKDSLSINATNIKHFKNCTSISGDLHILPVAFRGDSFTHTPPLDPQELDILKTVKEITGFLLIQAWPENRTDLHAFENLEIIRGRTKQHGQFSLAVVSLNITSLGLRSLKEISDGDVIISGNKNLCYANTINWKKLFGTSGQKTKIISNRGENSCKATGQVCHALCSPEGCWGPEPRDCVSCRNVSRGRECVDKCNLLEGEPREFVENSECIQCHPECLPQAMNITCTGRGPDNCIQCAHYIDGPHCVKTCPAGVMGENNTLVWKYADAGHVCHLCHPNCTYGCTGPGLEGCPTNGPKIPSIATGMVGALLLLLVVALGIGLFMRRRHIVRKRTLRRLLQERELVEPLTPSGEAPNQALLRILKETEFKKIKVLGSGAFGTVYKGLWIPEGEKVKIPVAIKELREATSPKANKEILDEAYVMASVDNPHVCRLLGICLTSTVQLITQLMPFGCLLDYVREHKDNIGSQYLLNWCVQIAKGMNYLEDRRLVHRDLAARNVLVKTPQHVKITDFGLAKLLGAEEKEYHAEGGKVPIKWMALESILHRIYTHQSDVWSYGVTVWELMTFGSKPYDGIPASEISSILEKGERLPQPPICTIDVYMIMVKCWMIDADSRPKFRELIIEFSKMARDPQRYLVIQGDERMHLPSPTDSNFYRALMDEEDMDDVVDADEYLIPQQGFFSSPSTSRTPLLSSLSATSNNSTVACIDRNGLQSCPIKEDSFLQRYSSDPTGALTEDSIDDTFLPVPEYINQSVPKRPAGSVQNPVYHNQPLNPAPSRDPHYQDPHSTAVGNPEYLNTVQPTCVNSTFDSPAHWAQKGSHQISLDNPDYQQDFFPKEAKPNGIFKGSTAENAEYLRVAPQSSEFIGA
T1 sequence (P35918 784-1345 limits assumed): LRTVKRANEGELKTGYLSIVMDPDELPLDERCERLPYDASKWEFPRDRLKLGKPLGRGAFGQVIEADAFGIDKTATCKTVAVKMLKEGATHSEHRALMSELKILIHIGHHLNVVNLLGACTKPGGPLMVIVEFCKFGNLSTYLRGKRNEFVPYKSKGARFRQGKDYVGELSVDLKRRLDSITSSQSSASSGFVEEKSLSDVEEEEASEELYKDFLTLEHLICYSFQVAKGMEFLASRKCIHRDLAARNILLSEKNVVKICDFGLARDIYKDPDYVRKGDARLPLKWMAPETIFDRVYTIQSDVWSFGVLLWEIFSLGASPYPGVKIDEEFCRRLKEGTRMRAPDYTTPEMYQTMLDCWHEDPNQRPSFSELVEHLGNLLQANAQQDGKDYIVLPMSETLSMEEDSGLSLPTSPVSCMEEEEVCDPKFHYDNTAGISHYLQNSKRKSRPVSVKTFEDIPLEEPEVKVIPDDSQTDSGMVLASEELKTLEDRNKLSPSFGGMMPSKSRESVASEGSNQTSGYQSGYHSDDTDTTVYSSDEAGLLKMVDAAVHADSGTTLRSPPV

SMILES	IC50 [1]	IC50 [2]	IC50 [3]	IC50 [4]	IC50 [5]
Cc1cc(C(=O)O)[nH]c1/C=C1\C(=O)N(C)c2ccccc21 [Example 2, 4-Methyl-5-(1-methyl-2-oxo-1,2-dihydroindol-3-ylidenemethyl)-1H-pyrrole-2-carboxylic acid]	> 100 µM	> 100 µM	> 100 µM	> 100 µM	
COc1ccccc1-c1ccc2c(c1)NC(=O)/C2=C\c1[nH]c(C)c(C(=O)NCCN(C)C)c1-c1ccccc1 [Example 45, 5-[6-(2-Methoxy-phenyl)-2-oxo-1,2-dihydroindol-3-ylidenemethyl]-2-methyl-4-phenyl-1H-pyrrole-3-carboxylic acid (2-dimethylamino-ethyl)amide]	1.71 µM			30 µM	
Cc1[nH]c(/C=C2\C(=O)Nc3cc(-c4ccccc4)ccc32)c(C)c1C(=O)NCCN(C)C [Example 49, 2,4-Dimethyl-5-(2-oxo-6-phenyl-1,2-dihydroindol-3-ylidenemethyl)-1H-pyrrole-3-carboxylic acid (2-dimethylamino-ethyl)amide]				43.9 µM	
COc1ccccc1-c1ccc2c(c1)NC(=O)/C2=C\c1[nH]c(C)c(C(=O)NCCN(C)C)c1C [Example 54, 5-[6-(2-Methoxy-phenyl)-2-oxo-1,2-dihydroindol-3-ylidenemethyl)-2,4-dimethyl-1H-pyrrole-3-carboxylic acid (2-dimethylamino-ethyl)amide]	1.98 µM		23.9 µM	9.76 µM	7.02 µM
CCN(CC)CCNC(=O)c1c(C)[nH]c(/C=C2\C(=O)Nc3cc(-c4ccccc4)ccc32)c1C [Example 59, 2,4-Dimethyl-5-(2-oxo-6-phenyl-1,2-dihydroindol-3-ylidenemethyl)-1H-pyrrole-3-carboxylic acid (2-diethylaminoethyl)amide]		< 0.78 µM	> 100 µM	> 100 µM	> 100 µM
Cc1[nH]c(/C=C2\C(=O)Nc3cc(-c4ccccc4)ccc32)c(C)c1C(=O)NCCN1CCCC1 [Example 60, 2,4-Dimethyl-5-(2-oxo-6-phenyl-1,2-dihydroindol-3-ylidenemethyl)-1H-pyrrole-3-carboxylic acid (2-pyrrolidin-1-yl-ethyl)amide]		< 0.78 µM	> 100 µM	> 100 µM	> 100 µM
Cc1[nH]c(/C=C2\C(=O)Nc3cc(-c4ccccc4)ccc32)c(C)c1C(=O)NCCCn1ccnc1 [Example 61, 2,4-Dimethyl-5-(2-oxo-6-phenyl-1,2-dihydroindol-3-ylidenemethyl)-1H-pyrrole-3-carboxylic acid (3-imidazol-1-ylpropyl)amide]		< 0.78 µM	> 100 µM	> 100 µM	> 100 µM
Cc1[nH]c(/C=C2\C(=O)Nc3ccc(-c4ccccc4)cc32)c(C)c1C(=O)NCCCN(C)C [Example 66, 2,4-Dimethyl-5-(2-oxo-5-phenyl-1,2-dihydroindol-3-ylidenemethyl)-1H-pyrrole-3-carboxylic acid (3-dimethylamino-propyl)amide]	< 0.05 µM		> 100 µM	11.8 µM	2.76 µM
CCN(CC)CCCNC(=O)c1c(C)[nH]c(/C=C2\C(=O)Nc3cccc(C(=O)Nc4ccc(OC)c(Cl)c4)c32)c1C [Example 69, 3-[4-(3-Diethylamino-propylcarbamoyl)-3,5-dimethyl-1H-pyrrol-2-ylmethylene]-2-oxo-2,3-dihydro-1H-indole-4-carboxylic acid (3-chloro-4-methoxy-phenyl)amide]	0.3 µM	56.5 µM		97.5 µM	
Cc1[nH]c(/C=C2\C(=O)Nc3ccc(Br)cc32)c(C)c1C(=O)NCc1ccncc1 [Example 74, 5-(5-Bromo-2-oxo-1,2-dihydroindol-3-ylidenemethyl)-2,4-dimethyl-1H-pyrrole-3-carboxylic acid (pyridin-4-ylmethyl)amide]	1.2 µM	0.09 µM	46.8 µM		> 100 µM
CCCCc1ccc(-c2ccc3c(c2)NC(=O)/C3=C\c2[nH]c(C)c(C(=O)NCCN3CCCC3)c2C)cc1 [Example 75, 5-[6-(4-Butyl-phenyl)-2-oxo-1,2-dihydroindol-3-ylidenemethyl]-2,4-dimethyl-1H-pyrrole-3-carboxylic acid (2-pyrrolidin-1-yl-ethyl)amide]	2.7 µM	61.6 µM	> 100 µM		> 100 µM
COc1ccc(C(C)C)cc1-c1ccc2c(c1)NC(=O)/C2=C\c1[nH]c(C)c(C(=O)NCCN2CCCC2)c1C [Example 76, 5-[6-(5-Isopropyl-2-methoxy-phenyl)-2-oxo-1,2-dihydroindol-3-ylidenemethyl]-2,4-dimethyl-1H-pyrrole-3-carboxylic acid (2-pyrrolidin-1-yl-ethyl)amide]	3.33 µM	19.2 µM	5.11 µM		3.01 µM
CCc1ccc(-c2ccc3c(c2)NC(=O)/C3=C\c2[nH]c(C)c(C(=O)NCCN3CCCC3)c2C)cc1 [Example 77, 5-[6-(4-Ethyl-phenyl)-2-oxo-1,2-dihydroindol-3-ylidenemethyl]-2,4-dimethyl-1H-pyrrole-3-carboxylic acid (2-pyrrolidin-1-yl-ethyl)amide]	0.49 µM	25 µM	> 100 µM		> 100 µM
COc1ccc(-c2ccc3c(c2)NC(=O)/C3=C\c2[nH]c(C)c(C(=O)NCCN3CCCC3)c2C)c(OC)c1 [Example 78, 5-[6-(2,4-Dimethoxy-phenyl)-2-oxo-1,2-dihydroindol-3-ylidenemethyl]-2,4-dimethyl-1H-pyrrole-3-carboxylic acid (2-pyrrolidin-1-yl-ethyl)amide]	1.94 µM	70.6 µM	9.33 µM		4.25 µM
Cc1[nH]c(/C=C2\C(=O)Nc3cc(-c4cccc(C(C)C)c4)ccc32)c(C)c1C(=O)NCCN1CCCC1 [Example 79, 5-[6-(3-Isopropyl-phenyl)-2-oxo-1,2-dihydroindol-3-ylidenemethyl]-2,4-dimethyl-1H-pyrrole-3-carboxylic acid (2-pyrrolidin-1-yl-ethyl)amide]	1.49 µM	> 100 µM	27.4 µM		> 100 µM

Other lines, results leading:

IC50 [1]	IC50 [2]	IC50 [3]	IC50 [4]	IC50 [5]	SMILES
4.04 µM		3.26 µM	7.82 µM	2.43 µM	Cc1cc(C(=O)NCCCN2CCCC2)[nH]c1/C=C1\C(=O)Nc2ccc(Br)cc21 [Example 6, 5-(5-Bromo-2-oxo-1,2-dihydroindol-3-ylidenemethyl)-4-methyl-1H-pyrrole-2-carboxylic acid (3-pyrrolidin-1-ylpropyl)amide]
2.67 µM		2.57 µM	9.23 µM	4.99 µM	CCN(CC)CCCNC(=O)c1[nH]c(/C=C2\C(=O)Nc3ccc(Br)cc32)c2c1CCCC2 [Example 18, 3-(5-Bromo-2-oxo-1,2-dihydroindol-3-ylidenemethyl)-4,5,6,7-tetrahydro-2H-isoindole-1-carboxylic acid (3-diethylaminopropyl)amide]
7.5 µM		6.86 µM	34.2 µM	8.37 µM	O=C1Nc2ccc(Br)cc2/C1=C/c1[nH]c(C(=O)NCCCN2CCCC2)c2c1CCCC2 [Example 19, 3-(5-Bromo-2-oxo-1,2-dihydroindol-3-ylidenemethyl)-4,5,6,7-tetrahydro-2H-isoindole-1-carboxylic acid (3-pyrrolidin-1-ylpropyl)amide]
11.5 µM		> 100 µM	41.2 µM	8 µM	CCN(CC)CCNC(=O)c1[nH]c(/C=C2\C(=O)Nc3cc(-c4cccnc4)ccc32)c2c1CCCC2 [Example 20, 3-(2-Oxo-6-pyridin-3-yl-1,2-dihydroindol-3-ylidenemethyl)-4,5,6,7-tetrahydro-2H-isoindole-1-carboxylic acid (2-diethylaminoethyl)amide]
			20.3 µM		Cc1[nH]c(/C=C2\C(=O)Nc3ccc(Cl)cc32)c(C)c1C(=O)NCCN(C)C [Example 50, 5-(5-Chloro-2-oxo-1,2-dihydroindol-3-ylidenemethyl)-2,4-dimethyl-1H-pyrrole-3-carboxylic acid (2-dimethylamino-ethyl)amide]
	< 0.78 µM	> 100 µM	> 100 µM	> 100 µM	Cc1[nH]c(/C=C2\C(=O)Nc3ccc(Br)cc32)c(C)c1C(=O)NCCCn1ccnc1 [Example 53, 5-(5-Bromo-2-oxo-1,2-dihydroindol-3-ylidenemethyl)-2,4-dimethyl-1H-pyrrole-3-carboxylic acid (3-imidazol-1-ylpropyl)amide]
0.21 µM	0.18 µM	> 100 µM		> 100 µM	CCN(CC)CCNC(=O)c1c(C)[nH]c(/C=C2\C(=O)Nc3cc(C(=O)O)ccc32)c1C [Example 81, 3-[4-(2-diethylaminoethylcarbamoyl)-3,5-dimethyl-1H-pyrrol-2-ylmethylene]-2-oxo-2,3-dihydro-1H-indole-6-carboxylic acid]
